# Assay results as given in patent publication US20250218201A1, “ANALYZING PHENOTYPES OF CELLS” (priority 2023, published 2025).
# Experiments:
# Format in all cases: cell-based
# [1] = tested on: Jurkat (T Lymphocyte), Clone E6-1 cells; assay: REM-I label-free high-dimensional morphology profiling (UMAP); details: 10 μM camptothecin, 6 hours, unstained brightfield images
# Procedure: (§1) The REM-I platform was used to obtain images of cells at different states of dying than one another. More specifically, live, viable Jurkat (T Lymphocyte), Clone E6-1 cells were cultured in RPMI-1640 medium (ThermoFisher Scientific) with 10% fetal bovine serum (FBS) at 37° C. with 5% CO2. A suspension of the cells was prepared at a concentration of 2×10^6 cells/mL for apoptosis and necrosis induction. The following treatments were used to induce cell death (e.g., via apoptosis or necrosis) in different samples of the suspension.
# Sample 2: Camptothecin (ab120115, Abcam), a DNA topoisomerase inhibitor, was administered to the suspension of Jurkat cells at a final concentration of 10 μM and incubated at 37° C. with 5% CO2 for six hours to induce apoptosis by perturbing topoisomerase I. […]
# Following treatment, each of the samples was split into two aliquots, one for use in REM-I morphology profiling and one for use in flow cytometry assessment. […] For flow cytometry, 1×10^6 treated cells in 100 μL were incubated with 5 μL of PACIFIC BLUE™ Annexin V stock (per manufacturer recommendation) and 1 μL of SYTOX™ AADVANCED™ (A35136, ThermoFisher) for 30 minutes at room temperature and then analyzed with the BD FACSMELODY™ cell sorter and BD FACSCHORUS™ software (BD Biosciences, California).
# [2] = tested on: Jurkat (T Lymphocyte), Clone E6-1 cells; assay: Annexin V / SYTOX AADvanced flow cytometry of cell death states
# Procedure: as §1
# (§2) Sample 2: Camptothecin (ab120115, Abcam), a DNA topoisomerase inhibitor, was administered to the suspension of Jurkat cells at a final concentration of 10 μM and incubated at 37° C. with 5% CO2 for six hours to induce apoptosis by perturbing topoisomerase I.
# (§3) Sample 3: Staurosporine (ab120056, Abcam), a protein kinase inhibitor, was administered to the suspension of Jurkat cells at a final concentration of 2 μM and incubated at 37° C. with 5% CO2 for either three hours or for eighteen hours to induce apoptosis by G2/M cell cycle arrest.
# (§4) Following treatment, each of the samples was split into two aliquots, one for use in REM-I morphology profiling and one for use in flow cytometry assessment. For morphology profiling, treated cells at a concentration of 3×10^6 cells per mL in a single cell suspension were run on the REM-I platform with a flow rate of about 300 cells/second, and more than about 40,000 images were captured. The data suite 190, described with reference to FIG. 1, was trained using the multi-dimensional feature vectors from the cells and used to generate reduced-dimensionality plots which will be described with reference to FIGS. 16, 17, and 18. For flow cytometry, 1×10^6 treated cells in 100 μL were incubated with 5 μL of PACIFIC BLUE™ Annexin V stock (per manufacturer recommendation) and 1 μL of SYTOX™ AADVANCED™ (A35136, ThermoFisher) for 30 minutes at room temperature and then analyzed with the BD FACSMELODY™ cell sorter and BD FACSCHORUS™ software (BD Biosciences, California).
# [3] = as above; details: human, read-out: viable cells (flow cytometry, Annexin V/SYTOX staining)
# Procedure: as §1, §2, §3, §4
# [4] = 2 μM staurosporine, eighteen hours
# [5] = 2 μM staurosporine, three hours
SMILES,morphological profile on UMAP compared to healthy cells of Sample 1 [1],"apoptotic cells (flow cytometry, Annexin V/SYTOX staining) ([2]; 10 μM camptothecin, six hours, 37° C.) [%]","viability at 6 h, 10 μM ([3]; Jurkat (T lymphocyte), Clone E6-1 cells, 10 μM camptothecin, six hours, 37° C.) [%]","dead cells (flow cytometry, Annexin V/SYTOX staining) [2, 4] [%]","necrotic cells (flow cytometry, Annexin V/SYTOX staining) [2, 4] [%]","apoptotic cells (flow cytometry, Annexin V/SYTOX staining) [2, 5] [%]","dead cells (flow cytometry, Annexin V/SYTOX staining) [2, 5] [%]","necrotic cells (flow cytometry, Annexin V/SYTOX staining) [2, 5] [%]","viability at 3 h, 2 μM ([3]; Jurkat cells, 2 μM staurosporine, three hours) [%]"
"CC[C@@]1(O)C(=O)OCc2c1cc1n(c2=O)Cc2cc3ccccc3nc2-1 [Sample 2, Camptothecin]",morphological shift in the main population,28.7,71,–,–,–,–,–,–
"CN[C@@H]1C[C@H]2O[C@@](C)([C@@H]1OC)n1c3ccccc3c3c4c(c5c6ccccc6n2c5c31)C(=O)NC4 [staurosporine, Staurosporine]",–,–,–,12.4,85.0,6.96,14.1,64.5,14.5
